Data published in patent US11059766B2, “Ethynyl derivatives” (Hoffmann-La Roche Inc., priority 2015, dated 2021).

Legend:
human mGlu5a receptor [1] = target: T1, human mGlu5a receptor (Homo sapiens (Human), UniProt P41594); test: MPEP binding assay ([3H]MPEP displacement); conditions: for EC50: [3H]MPEP 2 nM, EBNA cell membranes, read-out: mGlu5-MPEP binding EC50; for Ki: comparison table
Procedure: For binding experiments, cDNA encoding human mGlu5a receptor was transiently transfected into EBNA cells using a procedure described by Schlaeger and Christensen [Cytotechnology 15:1-13 (1998)]. Cell membrane homogenates were stored at −80° C. until the day of assay where upon they were thawed and resuspended and polytronised in 15 mM Tris-HCl, 120 mM NaCl, 100 mM KCl, 25 mM CaCl2, 25 mM MgCl2 binding buffer at pH 7.4 to a final assay concentration of 20 μg protein/well.
Saturation isotherms were determined by addition of twelve [^3H]MPEP concentrations (0.04-100 nM) to these membranes (in a total volume of 200 μl) for 1 h at 4° C. Competition experiments were performed with a fixed concentration of [^3H]MPEP (2 nM) and IC50 values of test compounds evaluated using 11 concentrations (0.3-10,000 nM). Incubations were performed for 1 h at 4° C.
At the end of the incubation, membranes were filtered onto unifilter (96-well white microplate with bonded GF/C filter preincubated 1 h in 0.1% PEI in wash buffer, Packard BioScience, Meriden, Conn.) with a Filtermate 96 harvester (Packard BioScience) and washed 3 times with cold 50 mM Tris-HCl, pH 7.4 buffer. Nonspecific binding was measured in the presence of 10 μM MPEP. The radioactivity on the filter was counted (3 min) on a Packard Top-count microplate scintillation counter with quenching correction after addition of 45 μl of microscint 40 (Canberra Packard S. A., Zürich, Switzerland) and shaking for 20 min.

human mGlu5a receptor [2] = target: T1, human mGlu5a receptor; test: Intracellular Ca2+ mobilization assay (mGlu5 PAM assay); format: cell-based; conditions: for mGlu5 PAM EC50: HEK-293 cells, glutamate at EC20; for Activity profile: PAM or NAM; for EC50 (nM) mGlu5 PAM assay: comparison table; for Efficacy: maximal response in % of maximal stimulatory effect of saturating L-glutamate
Procedure: A monoclonal HEK-293 cell line stably transfected with a cDNA encoding for the human mGlu5a receptor was generated; for the work with mGlu5 Positive Allosteric Modulators (PAMs), a cell line with low receptor expression levels and low constitutive receptor activity was selected to allow the differentiation of agonistic versus PAM activity. Cells were cultured according to standard protocols (Freshney, 2000) in Dulbecco's Modified Eagle Medium with high glucose supplemented with 1 mM glutamine, 10% (vol/vol) heat-inactivated bovine calf serum, Penicillin/Streptomycin, 50 μg/ml hygromycin and 15 μg/ml blasticidin (all cell culture reagents and antibiotics from Invitrogen, Basel, Switzerland).
About 24 hrs before an experiment, 5×10^4 cells/well were seeded in poly-D-lysine coated, black/clear-bottomed 96-well plates. The cells were loaded with 2.5 μM Fluo-4AM in loading buffer (1×HBSS, 20 mM HEPES) for 1 hr at 37° C. and washed five times with loading buffer. The cells were transferred into a Functional Drug Screening System 7000 (Hamamatsu, Paris, France), and 11 half logarithmic serial dilutions of test compound at 37° C. were added and the cells were incubated for 10-30 min with on-line recording of fluorescence. Following this pre-incubation step, the agonist L-glutamate was added to the cells at a concentration corresponding to EC20 (typically around 80 μM) with on-line recording of fluorescence; in order to account for day-to-day variations in the responsiveness of cells, the EC20 of glutamate was determined immediately ahead of each experiment by recording of a full dose-response curve of glutamate.
Responses were measured as peak increase in fluorescence minus basal (i.e. fluorescence without addition of L-glutamate), normalized to the maximal stimulatory effect obtained with saturating concentrations of L-glutamate. Graphs were plotted with the % maximal stimulatory using XLfit, a curve fitting program that iteratively plots the data using Levenburg Marquardt algorithm. The single site competition analysis equation used was y=A+((B−A)/(1+((x/C)D))), where y is the % maximal stimulatory effect, A is the minimum y, B is the maximum y, C is the EC50, x is the log 10 of the concentration of the competing compound and D is the slope of the curve (the Hill Coefficient). From these curves the EC50 (concentration at which half maximal stimulation was achieved), the Hill coefficient as well as the maximal response in % of the maximal stimulatory effect obtained with saturating concentrations of L-glutamate were calculated.
A depression of the signal observed after addition of the EC20 concentration of L-glutamate was indicative of an inhibitory activity of the test compound.

[3] = rat Vogel conflict drinking test; format: in vivo

T1 sequence (P41594 other isoform, or with tags, fused parts or gaps): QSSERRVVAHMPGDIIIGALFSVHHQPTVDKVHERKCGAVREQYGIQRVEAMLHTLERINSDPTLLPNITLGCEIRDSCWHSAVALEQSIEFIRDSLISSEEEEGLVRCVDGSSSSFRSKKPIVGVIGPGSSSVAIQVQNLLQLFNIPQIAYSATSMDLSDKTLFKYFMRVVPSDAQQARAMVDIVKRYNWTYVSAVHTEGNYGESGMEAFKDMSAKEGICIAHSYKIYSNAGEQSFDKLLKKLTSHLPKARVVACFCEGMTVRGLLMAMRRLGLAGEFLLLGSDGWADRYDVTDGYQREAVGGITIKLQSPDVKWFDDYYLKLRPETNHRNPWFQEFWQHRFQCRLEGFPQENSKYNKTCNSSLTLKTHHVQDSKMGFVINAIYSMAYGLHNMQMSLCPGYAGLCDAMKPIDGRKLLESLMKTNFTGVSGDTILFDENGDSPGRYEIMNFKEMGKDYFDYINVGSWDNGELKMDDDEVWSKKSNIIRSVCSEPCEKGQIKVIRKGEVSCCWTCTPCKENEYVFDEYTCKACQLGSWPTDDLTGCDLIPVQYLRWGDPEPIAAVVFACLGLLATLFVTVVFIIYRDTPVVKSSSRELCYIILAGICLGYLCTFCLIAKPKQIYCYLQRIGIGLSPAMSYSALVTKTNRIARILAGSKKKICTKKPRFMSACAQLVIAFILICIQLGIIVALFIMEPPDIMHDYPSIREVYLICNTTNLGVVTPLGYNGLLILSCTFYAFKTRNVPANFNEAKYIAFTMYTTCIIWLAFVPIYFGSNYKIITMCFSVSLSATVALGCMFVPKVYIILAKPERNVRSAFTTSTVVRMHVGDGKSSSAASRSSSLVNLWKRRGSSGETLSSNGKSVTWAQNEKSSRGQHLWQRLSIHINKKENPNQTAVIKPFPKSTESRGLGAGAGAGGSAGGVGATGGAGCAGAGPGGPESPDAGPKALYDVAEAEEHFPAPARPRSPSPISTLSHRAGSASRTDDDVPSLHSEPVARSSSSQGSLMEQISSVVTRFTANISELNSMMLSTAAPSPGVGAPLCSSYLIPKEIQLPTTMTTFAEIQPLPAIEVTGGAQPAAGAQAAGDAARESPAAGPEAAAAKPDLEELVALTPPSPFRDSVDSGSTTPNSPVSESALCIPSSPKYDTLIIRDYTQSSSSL

CN1C(=O)N(c2ccc(C#Cc3ccccc3)cn2)[C@@H]2CC[C@@H]21 [Example 1, (−)-(1 S,5R)-2-methyl-4-(5-(phenylethynyl)pyridin-2-yl)-2,4-diazabicyclo[3.2.0]heptan-3-one]
EC50 (human mGlu5a receptor [1]): 9 nM
Ki (human mGlu5a receptor [1]): 9 nM
mGlu5 PAM EC50 (human mGlu5a receptor [2]): inactive
Activity profile (human mGlu5a receptor [2]): NAM
EC50 (nM) mGlu5 PAM assay (human mGlu5a receptor [2]): inactive
minimal effective dose (anxiolytic activity) [3]: 0.1 mg/kg

CN1C(=O)N(c2ccc(C#Cc3cccc(F)c3)cn2)[C@@H]2CC[C@@H]21 [Example 2, (−)-(1R,5S)-2-[5-(3-Fluoro-phenylethynyl)-pyridin-2-yl]-4-methyl-2,4-diazabicyclo[3.2.0]heptan-3-one]
EC50 (human mGlu5a receptor [1]): 5 nM
Ki (human mGlu5a receptor [1]): 5 nM
mGlu5 PAM EC50 (human mGlu5a receptor [2]): inactive
Activity profile (human mGlu5a receptor [2]): NAM
EC50 (nM) mGlu5 PAM assay (human mGlu5a receptor [2]): inactive

CN1C(=O)N(c2ccc(C#Cc3ccc(F)cc3)cn2)[C@@H]2CC[C@@H]21 [Example 3, (−)-(1R,5S)-2-[5-(4-Fluoro-phenylethynyl)-pyridin-2-yl]-4-methyl-2,4-diazabicyclo[3.2.0]heptan-3-one]
EC50 (human mGlu5a receptor [1]): 4 nM
Ki (human mGlu5a receptor [1]): 4 nM
mGlu5 PAM EC50 (human mGlu5a receptor [2]): inactive
Activity profile (human mGlu5a receptor [2]): NAM
EC50 (nM) mGlu5 PAM assay (human mGlu5a receptor [2]): inactive

CN1C(=O)N(c2ccc(C#Cc3cc(F)ccc3F)cn2)[C@@H]2CC[C@@H]21 [Example 4, (−)-(1R,5S)-2-[5-(2,5-Difluoro-phenylethynyl)-pyridin-2-yl]-4-methyl-2,4-diazabicyclo[3.2.0]heptan-3-one]
EC50 (human mGlu5a receptor [1]): 3 nM
Ki (human mGlu5a receptor [1]): 3 nM
mGlu5 PAM EC50 (human mGlu5a receptor [2]): inactive
Activity profile (human mGlu5a receptor [2]): NAM
EC50 (nM) mGlu5 PAM assay (human mGlu5a receptor [2]): inactive

CN1C(=O)N(c2ccc(C#Cc3ccccc3)cn2)[C@@H]2CCC[C@@H]21 [Ref. 1; Ex. 106, reference compound]
Ki (human mGlu5a receptor [1]): 8 nM
Activity profile (human mGlu5a receptor [2]): PAM
Efficacy (human mGlu5a receptor [2]): 42%

CN1C(=O)N(c2ccc(C#Cc3cccc(F)c3)cn2)[C@@H]2CCC[C@@H]21 [Ref. 1; Ex. 109, reference compound]
EC50 (human mGlu5a receptor [1]): 12 nM
Ki (human mGlu5a receptor [1]): 37 nM
Activity profile (human mGlu5a receptor [2]): PAM
Efficacy (human mGlu5a receptor [2]): 37%
